Molecules are shown by their SMILES.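 Where inhibition never reached the appropriate level, the endpoint shown equals the highest concentration tested. Otherwise, values were interpolated linearly from a five-concentration, 48-hour dose response in 96-well plates. GI50 marks 50% less growth. TGI denotes the concentration required for complete inhibition of growth.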

Some test systems named below: IGROV1 ovarian; RPMI-8226 leukemia; HT29 colon; SN12C renal; SK-MEL-28 melanoma; HCT-116 colon; SNB-19 CNS; OVCAR-8 ovarian; UACC-62 melanoma; TK-10 renal.
Assay in all cases: growth of human tumour cells (NCI), 48 h

On to `C/C1=C\CC[C@@](C)(O)[C@@H]2CC3[C@@H](OC(=O)C34CC4)[C@@H](O2)[C@H](C)CCC1` (stereo not given in full), for which the GI50 in the test with IGROV1 ovarian is 6.48 µM; in the test with RPMI-8226 leukemia it was 30.1 µM; in the test with HT29 colon it was 28.9 µM; in the test on SN12C renal, 20.3 µM; in the test with SK-MEL-28 melanoma it was 61.7 µM; with HCT-116 colon, 16.5 µM. Also, the GI50 in the test with SNB-19 CNS is 58.6 µM; in the test with OVCAR-8 ovarian, 18.8 µM; in the test on UACC-62 melanoma, 21.3 µM. The TGI in the test on IGROV1 ovarian was 24.1 µM; with RPMI-8226 leukemia it was greater than 100 µM; in the test with HT29 colon it was greater than 100 µM; in the test with SN12C renal, 43.5 µM; with SK-MEL-28 melanoma, greater than 100 µM; in the test with HCT-116 colon, 30.1 µM. The TGI in the test on SNB-19 CNS was greater than 100 µM; in the test with OVCAR-8 ovarian it was 38.1 µM; in the test on UACC-62 melanoma, 56.4 µM.
`CC1CC2(CC[C@@H]1O)OCCO2` (stereo not given in full): the TGI in the test on IGROV1 ovarian, with RPMI-8226 leukemia, with HT29 colon, with SN12C renal, in the test with HCT-116 colon and in the test on SNB-19 CNS was greater than 100 µM each time. Moreover, the TGI in the test on OVCAR-8 ovarian, in the test with UACC-62 melanoma and with TK-10 renal was greater than 100 µM in each case.
Turning to `COc1ccc2c(c1)nc(N)c1c3cccnc3cn21`, the GI50 with IGROV1 ovarian was 0.106 µM; with RPMI-8226 leukemia it was 0.0546 µM; in the test on HT29 colon, 0.0351 µM; in the test on SN12C renal, 0.382 µM; in the test with HCT-116 colon, 0.0471 µM; in the test on SNB-19 CNS it was 0.212 µM. In addition, the GI50 is 0.0898 µM with OVCAR-8 ovarian, 0.0541 µM in the test with UACC-62 melanoma and 0.252 µM in the test on TK-10 renal. The TGI in the test on IGROV1 ovarian is 37.1 µM; in the test with RPMI-8226 leukemia, 34.2 µM; in the test on HT29 colon, 1.88 µM; in the test with SN12C renal, greater than 100 µM; in the test on HCT-116 colon it was greater than 36.7 µM; in the test on SNB-19 CNS, greater than 100 µM. Moreover, the results for the TGI with OVCAR-8 ovarian, in the test with UACC-62 melanoma and with TK-10 renal were greater than 54.5 µM, 22.1 µM and 19.9 µM, respectively.
For the molecule `O=c1cccccc1NCCCCCCCCCNc1cccccc1=O`, the TGI with IGROV1 ovarian was greater than 100 µM; in the test on RPMI-8226 leukemia, 22.3 µM; in the test with HT29 colon, 65 µM; in the test with SN12C renal, 62.2 µM; in the test on HCT-116 colon it was 17.4 µM; in the test on SNB-19 CNS, 88.5 µM. For the same molecule, the TGI worked out at 34.7 µM in the test with OVCAR-8 ovarian and 28.7 µM in the test on UACC-62 melanoma.
On to `COc1ccc2cc3n(c2c1)CCc1cc(OC)c(OC)cc1-3`, for which the TGI in the test with IGROV1 ovarian, with HT29 colon, with SN12C renal, in the test with SK-MEL-28 melanoma, in the test on SNB-19 CNS and with OVCAR-8 ovarian was greater than 100 µM each time. Moreover, the TGI in the test with UACC-62 melanoma and in the test with TK-10 renal was greater than 100 µM each time.
In the case of `CCOC(=O)/C(C#N)=C1\N[C@H](C(=O)OCC)CO1`, the TGI in the test on IGROV1 ovarian, in the test with RPMI-8226 leukemia, in the test with HT29 colon, in the test on SN12C renal, in the test on SK-MEL-28 melanoma and in the test with HCT-116 colon was greater than 100 µM in each case. The TGI with SNB-19 CNS, in the test with OVCAR-8 ovarian and in the test with UACC-62 melanoma was greater than 100 µM each time.
In the case of `CC(CCCOC(c1ccccc1)(c1ccccc1)c1ccccc1)OC(=O)Nc1cc([N+](=O)[O-])cc([N+](=O)[O-])c1` (stereo not given), the TGI with IGROV1 ovarian is greater than 100 µM; in the test with RPMI-8226 leukemia it was greater than 100 µM; in the test on HT29 colon it was greater than 100 µM; with SN12C renal, greater than 100 µM; in the test with SK-MEL-28 melanoma it was 54.4 µM; in the test on HCT-116 colon it was greater than 100 µM. The TGI with SNB-19 CNS is greater than 100 µM; in the test on OVCAR-8 ovarian it was greater than 100 µM; with UACC-62 melanoma, 50.2 µM.
On to `FC(F)(F)C12C34C=CC5(CCC6(C=CC1(CC3)O6)C52C(F)(F)F)O4` (stereo not given), for which the TGI in the test with IGROV1 ovarian, with HT29 colon, in the test with SN12C renal, in the test on SK-MEL-28 melanoma, in the test with HCT-116 colon and in the test with SNB-19 CNS was greater than 100 µM each time. For the same molecule, the TGI with OVCAR-8 ovarian and in the test on TK-10 renal was greater than 100 µM in each case.
Consider `CS(=O)(=O)Nc1cc(-c2ccc3ncnc(Nc4ccc5c(cnn5Cc5ccc(F)cc5)c4)c3c2)cnc1Cl`, for which the GI50 is 0.314 µM in the test with IGROV1 ovarian; 1.92 µM in the test on HT29 colon; 1.66 µM with SN12C renal; 0.803 µM in the test on SK-MEL-28 melanoma; 2.92 µM in the test with HCT-116 colon; 1.81 µM with SNB-19 CNS. Besides, the GI50 is 3.02 µM with OVCAR-8 ovarian and 0.607 µM in the test on UACC-62 melanoma. Besides, the TGI came to 1.71 µM in the test with IGROV1 ovarian; 12.9 µM in the test on HT29 colon; 19.3 µM with SN12C renal; 7.17 µM in the test on SK-MEL-28 melanoma; 21.7 µM with HCT-116 colon; 12.2 µM in the test with SNB-19 CNS. Besides, the TGI in the test on OVCAR-8 ovarian is greater than 100 µM; in the test on UACC-62 melanoma, 2.98 µM.
For `COc1ccc(-c2ccc(/C=N/n3c(COc4ccc(Cl)cc4)n[nH]c3=S)o2)c([N+](=O)[O-])c1`, the GI50 was 21.1 µM in the test with HT29 colon; 19.9 µM with SN12C renal; 17.3 µM in the test with SK-MEL-28 melanoma; 16.8 µM in the test on HCT-116 colon; 20.1 µM in the test on SNB-19 CNS; 24.6 µM in the test with OVCAR-8 ovarian. For the same molecule, the GI50 was 17.8 µM with UACC-62 melanoma and 14.6 µM in the test with TK-10 renal. For the same molecule, the TGI in the test with HT29 colon is 50.9 µM; in the test with SN12C renal, 53.4 µM; in the test on SK-MEL-28 melanoma it was greater than 100 µM; in the test with HCT-116 colon, 40.7 µM; with SNB-19 CNS, 53.6 µM; in the test with OVCAR-8 ovarian it was greater than 100 µM. The TGI is 51.7 µM with UACC-62 melanoma and 37.1 µM in the test with TK-10 renal.
As for `COc1cnc2c(c1)C(=O)c1c-2n(CCCN2CCCC2)c(=O)c2cc(Cl)ccc12`, the GI50 is 2.47 µM in the test on IGROV1 ovarian; 5.26 µM in the test with RPMI-8226 leukemia; 0.161 µM in the test with HT29 colon; 8.34 µM with SK-MEL-28 melanoma; 1.03 µM in the test with SNB-19 CNS; 0.813 µM in the test on OVCAR-8 ovarian. For the same molecule, the TGI worked out at 12.5 µM in the test on IGROV1 ovarian; 16.3 µM in the test with RPMI-8226 leukemia; 7.94 µM with HT29 colon; 16.8 µM in the test with SK-MEL-28 melanoma; 11.7 µM in the test on SNB-19 CNS; 12.2 µM in the test with OVCAR-8 ovarian.
Regarding `CN(C)C(=O)C1CCC(=C2C(=O)OC(C)(C)OC2=O)N1C` (stereo not given), the TGI in the test with IGROV1 ovarian, in the test on HT29 colon, in the test with SN12C renal, in the test with SK-MEL-28 melanoma, in the test with HCT-116 colon and in the test with SNB-19 CNS was greater than 100 µM each time. The TGI with OVCAR-8 ovarian, in the test on UACC-62 melanoma and in the test with TK-10 renal was greater than 100 µM each time.

These data come from PubChem BioAssay (NCI).
